Data as given in patent US12448393B2, “Use of novel compound, for preventing, improving or treating amyotrophic lateral sclerosis” (PRG S&TECH INC., priority 2019, dated 2025).
Entries after “also recorded” stand apart in the source; their conditions may differ.

Experiments:
SOD1^G93A-Tg mice = test: In vivo drug treatment of ALS model mice (grip strength, behaviour, histology, survival); parameters: species or system mouse; details: dosing from 14 weeks, observed at 17-weeks of age; FIGS. 7C and 8C
SOD1-G93A = biological target: T1, SOD1-G93A (Homo sapiens, UniProt P00441, G94A); test: Dot blot analysis of recombinant SOD1 reacted with compound; assay type: biochemical; details: FIG. 5F
T1 construct: GST (TEV site) (N); made in house; host or cells: Escherichia coli BL21 (DE3)
Procedure: (§1) To prepare recombinant proteins, human SOD1 (WT, A4V, G37R, G85R, G93A) was added to EcoRI and HindIII sites of pGEX-TEV vector, an improved vector made by adding a TEV protease cleavage site to pGEX-4T1 (Invitrogen). The recombinant proteins were expressed as GST-fusion proteins in Escherichia coli (E. coli) strain BL21 (DE3). The proteins were purified by glutathione-affinity chromatography.
To detect misfolded SOD1 expression, cells transfected with SOD1 vector were treated with the compounds for 24 hours. After reaction, the cells were lysed with a lysis buffer without surfactant, and then cell lysate was fixed on a nitrocellulose membrane using a Bio-Dot SF Microfiltration apparatus (Bio-Rad Laboratories, Hercules, CA). In the case of peptide reaction, SOD1 recombinant proteins were reacted with the compounds for 1 hour, and then samples were loaded onto membrane. Each membrane was washed with TBS and blocked with 3% skim milk to prevent non specific reaction. After blocking, the membrane was reacted with the misfolded SOD1 or Actin antibody (1:8,000 in TBST including 1% skim milk) for 30 minutes, and then with a secondary antibody (goat anti-mouse IgG-horseradish peroxidase, 1:50,000 in 1% skim milk blocking buffer) for 30 minutes. Antibodies reacted to proteins were detected by ECL and X-ray film exposure. Actin was used as a loading control.

SOD1 [1] = biological target: SOD1 (Homo sapiens, UniProt P00441); test: Western blot / native gel analysis of SOD1 aggregation; assay type: cell-based
Procedure: (§2) Using RIPA buffer (50 mM Tris-Cl, pH 7.5, 150 mM NaCl, 1% NP-40, 0.1% SDS and […]) for SDS-PAGE and lysis buffer (50 mM Tris-Cl, pH 7.5, 150 mM NaCl, 0.3% NP-40) for Native-PAGE, proteins were extracted from cells. Samples were separated by the SDS-PAGE or the Native-PAGE and transferred to PVDF membrane. Blotted membrane was blocked with TBST buffer including 3% skim milk for 1 hour, and reacted with specific antibodies. The reacted antibodies were detected by ECL and X-ray film exposure. Antibodies used in the present disclosure are as follows: pan-SOD1 (GTX100554) was purchased from Genetex (California, USA). Misfolded SOD1-specific antibody (B8H10) was purchased from MediMabs (Montreal, Canada). Actin (sc-1616), GST (sc-138), and GFP (Green fluorescent protein; sc-8036) were purchased from Santa Cruz biotechnology (Santa Cruz, CA, USA). TDP-43 antibody (10782-2-AP) was purchased from Proteintech (Rosemont, IL, USA). Anti-FLAG (Sigma; F3165) was purchased from Sigma Aldrich (St, Louis, Mo, USA), and HRP-conjugated goat anti-mouse, goat anti-rabbit, and mouse anti-goat antibodies (Pierce, Thermo Fisher Scientific, Inc., Rockford, IL, USA) were used as secondary antibodies.
(§3) GFP-SOD1 (WT, G85R, G93A), non-tagged SOD1 (WT, A4V, G37R, G85R, G93A) and tdTomato-TDP43 expression vectors were purchased from Addgene (Cambridge, MA, USA). Transfection was performed using Jet-PEI reagent (JetPEI; Polyplus transfection, New York, NY, USA) according to the manufacturer's protocol. Briefly, vectors were mixed with JetPEI reagent in 150 mM NaCl buffer, and then mixture was reacted for 15 minutes. The mixture was added to cells in serum-free medium and reacted for 4 hours. After reaction, the cells were replaced with a culture medium supplemented with 10% FBS.

SOD1 [2] = test: as above; assay type: cell-based, human; details: for mutant SOD1 aggregation: FIGS. 3B and 3C
Procedure: as §2, §3

normal human fibroblasts = test: Cell viability measurement (MTT), normal fibroblasts; assay type: cell-based; details: for cytotoxic effect in normal fibroblasts: MTT, FIG. 4E, FIG. 9B
Procedure: HEK293 cells were purchased from American Type Culture Collection (ATCC, Manassas, VA, USA) and maintained at 37° C. and 5% CO2 in DMEM liquid medium including 10% fetal bovine serum and 1% penicillin-streptomycin. SK—N—SH cells were purchased from Korean Cell Line Bank (KCLB, Seoul, South Korea) and maintained in MEM medium including 10% fetal bovine serum, 1% antibiotic, 25 mM HEPES, and 300 mg/L L-Glu. Human fibroblasts (person) were purchased from Coriell Cell Repositories (New Jersey, USA) and maintained in EMEM including 15% FBS, 2 mM Glutamine, and 26 mM HEPES without antibiotics. Thapsigargin (ER calcium scavenger: CAS 67526-95-8) was purchased from Calbiochem (Darmstadt, Germany). CoCl2 (hypoxia-inducer: C8661) was purchased from Sigma Aldrich (St, Louis, Mo, USA).
To check cells viability, the cells were reacted with 0.5 mg/ml MTT solution (475989; Merck, Darmstadt, Germany) at 37° C. for 4 hours. After removing residual solution and washing with PBS, precipitate was dissolved in 200 μl DMSO, and quantified by measuring absorbance at 540 nm.

[3] = tested on: WT-SOD1 and mutant SOD1-GST (A4V, G37R, G85R, G93A); test: ELISA compound screening for binding inhibitor between WT-SOD1 and mutant SOD1; parameters: species or system human
Procedure: For compound screening, the present inventors applied an ELISA assay system. To select a binding inhibitor between WT-SOD1 and mutant SOD1, the present inventors used 0.5% paraformaldehyde (PFA) to fix WT-SOD1 recombinant protein on a 96-well plate. The plate was dried, washed with phosphate-buffered saline (PBS), and reacted with the compounds at a final concentration of 50 μM, and then mutant SOD1-GST (A4V, G37R, G85R, G93A) proteins were added. After 2 hours of reaction, the 96-well plate was washed with PBS and blocked with 3% skim milk to prevent non specific reaction. The plate was reacted with anti-GST antibody (diluted at 1:10,000) for 1 hour, and then reacted with anti-mouse IgG-HRP (diluted at 1:50,000) for 1 hour. After washing twice, the plate was reacted with a 3,3′,5,5′-tetramethylbenzidine (TMB) solution (Calbiochem) for 30 minutes and a stop solution (1N H2SO4) for 30 minutes. Finally, the present inventors analyzed values using an ELISA reader (450 nm absorbance). Negative control (−; red line) was reacted without mutant SOD1, and positive control (+; blue line) was reacted with mutant SOD1 without the compounds.
as §1

Sequence of SOD1 (Homo sapiens, UniProt P00441) (P00441 2-154): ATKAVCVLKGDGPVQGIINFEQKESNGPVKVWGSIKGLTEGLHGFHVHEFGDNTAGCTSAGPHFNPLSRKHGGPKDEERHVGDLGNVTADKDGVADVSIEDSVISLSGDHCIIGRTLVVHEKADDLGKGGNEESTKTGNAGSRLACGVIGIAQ
T1 sequence (P00441 whole entry G94A): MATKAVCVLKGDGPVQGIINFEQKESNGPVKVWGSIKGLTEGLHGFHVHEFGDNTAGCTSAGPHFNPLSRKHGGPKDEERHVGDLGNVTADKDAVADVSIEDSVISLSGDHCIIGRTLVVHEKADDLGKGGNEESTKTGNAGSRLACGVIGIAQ

- SOD1 aggregation and TDP43 aggregation, native gel analysis (SOD1 [1]; TDP-43 overexpression, FIG. 5B): reduced; also recorded: decreased
- ELISA ([3]; Table 1, compounds at final concentration of 50 μM): Effect ○
- binding inhibition in ELISA compound screening ([3]; WT-SOD1 fixed on plate, GST-tagged mutant SOD1s, FIG. 3A): specific for mutation
Compound: COc1cc(/C=C/C(=O)O[C@H]2Cc3cc4ccc(=O)oc4cc3OC2(C)C)ccc1O [PRG-A-01, (S)-8,8-dimethyl-2-oxo-7,8-dihydro-2H,6H-pyrano[3,2-g]chromen-7-yl (E)-3-(4-hydroxy-3-methoxyphenyl) acrylate]
- motor capacity, behavioral observation (SOD1^G93A-Tg mice): still had motor capacity
- recognition of mutant SOD1 by misfolding-specific antibody (SOD1-G93A): inhibits misfolding of mutant SOD1; also recorded: antibody specific for misfolding did not recognize mutant SOD1
- multimer bands of SOD1 and TDP-43, cross-linking experiment (SOD1 [1]; glutaraldehyde cross-linking, FIG. 5C): blocks multimer formation of SOD1; also recorded: weakened
- mutant SOD1 aggregation (SOD1 [2]): inhibits SOD1 aggregation
- mutant SOD1 aggregation (SOD1 [2]; listed as SLC-B036): blocking mutant SOD1 aggregation in a dose-dependent manner
- Western Blot (SOD1 [2]; Table 1, effect on SOD1 aggregation, native / non-SDS-PAGE gel): Effect ○
- cytotoxic effect in normal fibroblasts (normal human fibroblasts): not cytotoxic
- cytotoxic effect in normal fibroblasts (normal human fibroblasts; listed as SLC-B036): did not exhibit cytotoxic effect
- Toxicity (MTT) (normal human fibroblasts; Table 1, cell type not given, neurons (FIG. 9A) and normal fibroblasts (FIG. 9B)): No
